Test results taken from PubChem BioAssay AID1919017 (Molecular Pharmacology Branch, DTP, NCI, 2023).
“And” between values parts separate entries of the source, which are not always exact repeats. Identical values can stand only once.

Tested on: SW1271 complex spheroids with HUVEC/MSC, growth, % test/control
Assay: Anticancer human tumor SW1271 cell line growth inhibition [AhR];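 also: spheroids exposed to agents for 7 days before readout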
Settings: for viability, T/C: stronger effect = lower value
Outline: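 Complex tumor spheroids co-cultured with HUVEC and human MSC stroma; AhR antagonists tested in combination with standard-of-care and investigational agents. Top concentration at or near clinical Cmax (else 10 microM), half-log dilutions; growth expressed as percent test/control.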

[1] = curve of first compound, second compound 0.1 µM
[2] = curve of first compound, second compound 0.316 µM
[3] = curve of first compound, second compound 1 µM
[4] = curve of first compound, second compound 3.16 µM
[5] = curve of first compound, second compound 10 µM
[6] = second compound 0.1 µM, first compound 0.0316 µM
[7] = second compound 0.1 µM, first compound 0.1 µM
[8] = second compound 0.1 µM, first compound 0.316 µM
[9] = second compound 0.1 µM, first compound 1 µM
[10] = second compound 0.1 µM, first compound 3.16 µM
[11] = second compound 0.1 µM, first compound 10 µM
[12] = second compound 0.316 µM, first compound 0.0316 µM
[13] = second compound 0.316 µM, first compound 0.1 µM
[14] = second compound 0.316 µM, first compound 0.316 µM
[15] = second compound 0.316 µM, first compound 1 µM
[16] = second compound 0.316 µM, first compound 3.16 µM
[17] = second compound 0.316 µM, first compound 10 µM
[18] = second compound 1 µM, first compound 0.0316 µM
[19] = second compound 1 µM, first compound 0.1 µM
[20] = second compound 1 µM, first compound 0.316 µM
[21] = second compound 1 µM, first compound 1 µM
[22] = second compound 1 µM, first compound 3.16 µM
[23] = second compound 1 µM, first compound 10 µM
[24] = second compound 3.16 µM, first compound 0.0316 µM
[25] = second compound 3.16 µM, first compound 0.1 µM
[26] = second compound 3.16 µM, first compound 0.316 µM
[27] = second compound 3.16 µM, first compound 1 µM
[28] = second compound 3.16 µM, first compound 3.16 µM
[29] = second compound 3.16 µM, first compound 10 µM
[30] = second compound 10 µM, first compound 0.0316 µM
[31] = second compound 10 µM, first compound 0.1 µM
[32] = second compound 10 µM, first compound 0.316 µM
[33] = second compound 10 µM, first compound 1 µM
[34] = second compound 10 µM, first compound 3.16 µM
[35] = second compound 10 µM, first compound 10 µM

CC1(C)CCC(CN2CCN(c3ccc(C(=O)NS(=O)(=O)c4ccc(NCC5CCOCC5)c([N+](=O)[O-])c4)c(Oc4cnc5[nH]ccc5c4)c3)CC2)=C(c2ccc(Cl)cc2)C1 + CC(CO)NC(=O)c1cc(-c2ccc(Cl)cc2)nn(-c2cnn(C)c2)c1=O
IC50 [1]: > 10 µM
IC50 [2]: > 10 µM
IC50 [3]: > 10 µM
IC50 [4]: > 10 µM
IC50 [5]: > 10 µM
viability, T/C [6]: 85.8%
viability, T/C [7]: 90.7%
viability, T/C [8]: 107%
viability, T/C [9]: 98.6%
viability, T/C [10]: 82.7%
viability, T/C [11]: 71.5%
viability, T/C [12]: 84.4%
viability, T/C [13]: 73%
viability, T/C [14]: 71.8%
viability, T/C [15]: 84.2%
viability, T/C [16]: 100%
viability, T/C [17]: 78.3%
viability, T/C [18]: 91%
viability, T/C [19]: 89.3%
viability, T/C [20]: 78.8%
viability, T/C [21]: 80.4%
viability, T/C [22]: 85%
viability, T/C [23]: 86.3%
viability, T/C [24]: 68%
viability, T/C [25]: 70.2%
viability, T/C [26]: 91.4%
viability, T/C [27]: 82.5%
viability, T/C [28]: 60.7%
viability, T/C [29]: 88.6%
viability, T/C [30]: 70.8%
viability, T/C [31]: 69.3%
viability, T/C [32]: 74.7%
viability, T/C [33]: 54.8%
viability, T/C [34]: 78.2%
viability, T/C [35]: 78.2%

CC1COCCN1c1cc(-c2ccnn2C)c2ccnc(-c3ccn[nH]3)c2n1 (stereo not drawn) + Cc1cncc(-c2nc(NCCc3c[nH]c4ccccc34)c3ncn(C(C)C)c3n2)c1
IC50 [1]: 0.413 µM
IC50 [2]: 0.251 µM
IC50 [3]: 0.653 µM
IC50 [4]: 0.735 µM
IC50 [5]: < 0.00316 µM
viability, T/C (second compound 0.1 µM, first compound 0.00316 µM): 79.6%
viability, T/C (second compound 0.1 µM, first compound 0.01 µM): 86.7%
viability, T/C [6]: 70.2%
viability, T/C [7]: 57.4%
viability, T/C [8]: 58%
viability, T/C [9]: 39.4%
viability, T/C (second compound 0.316 µM, first compound 0.00316 µM): 68%
viability, T/C (second compound 0.316 µM, first compound 0.01 µM): 90.1%
viability, T/C [12]: 70.4%
viability, T/C [13]: 62.2%
viability, T/C [14]: 48%
viability, T/C [15]: 35.1%
viability, T/C (second compound 1 µM, first compound 0.00316 µM): 89.8%
viability, T/C (second compound 1 µM, first compound 0.01 µM): 88%
viability, T/C [18]: 75.3%
viability, T/C [19]: 63%
viability, T/C [20]: 62%
viability, T/C [21]: 44.2%
viability, T/C (second compound 3.16 µM, first compound 0.00316 µM): 72.2%
viability, T/C (second compound 3.16 µM, first compound 0.01 µM): 85.2%
viability, T/C [24]: 72.4%
viability, T/C [25]: 70.2%
viability, T/C [26]: 61.3%
viability, T/C [27]: 46%
viability, T/C (second compound 10 µM, first compound 0.00316 µM): 30.2%
viability, T/C (second compound 10 µM, first compound 0.01 µM): 35%
viability, T/C [30]: 36.9%
viability, T/C [31]: 36.2%
viability, T/C [32]: 35%
viability, T/C [33]: 24.6%

COc1cccc2c1C(=O)c1c(O)c3c(c(O)c1C2=O)CC(O)(C(=O)CO)CC3OC1CC(N)C(O)C(C)O1 (stereo not drawn)
viability, T/C (compound 0.0316 µM): 66.6% and 50.3% and 72.6%
viability, T/C (compound 0.1 µM): 69.8% and 46.8% and 56.1%
viability, T/C (compound 0.316 µM): 53% and 29.6% and 40.6%
viability, T/C (compound 1 µM): 7.45% and 5.09% and 6.04%
viability, T/C (compound 3.16 µM): 4.63% and 2.92% and 2.03%
viability, T/C (compound 10 µM): 13.6% and 3.38% and 3.85%

Nc1ccccc1NC(=O)c1ccc(CNC(=O)OCc2cccnc2)cc1
viability, T/C (compound 0.0316 µM): 107% and 114% and 87.5%
viability, T/C (compound 0.1 µM): 112% and 89.2% and 77%
viability, T/C (compound 0.316 µM): 72.5% and 61% and 59.9%
viability, T/C (compound 1 µM): 62.2% and 60.4% and 45.5%
viability, T/C (compound 3.16 µM): 37.6% and 38.3% and 33.3%
viability, T/C (compound 10 µM): 10.4% and 14.2% and 7.86%
IC50 (curve of compound): 1.62 µM and 1.18 µM and 0.765 µM

COc1cc(C2c3cc4c(cc3C(OC3OC5COC(C)OC5C(O)C3O)C3COC(=O)C23)OCO4)cc(OC)c1O (stereo not drawn) + CC(CO)NC(=O)c1cc(-c2ccc(Cl)cc2)nn(-c2cnn(C)c2)c1=O
IC50 [1]: 9.25 µM
IC50 [2]: 5.01 µM
IC50 [3]: 8.48 µM
IC50 [4]: 3.03 µM
IC50 [5]: 2.91 µM
viability, T/C [6]: 78.3%
viability, T/C [7]: 74.3%
viability, T/C [8]: 66.5%
viability, T/C [9]: 72.7%
viability, T/C [10]: 57.1%
viability, T/C [11]: 49.5%
viability, T/C [12]: 93.5%
viability, T/C [13]: 77.6%
viability, T/C [14]: 60.4%
viability, T/C [15]: 57.9%
viability, T/C [16]: 56%
viability, T/C [17]: 44.5%
viability, T/C [18]: 64.7%
viability, T/C [19]: 78.5%
viability, T/C [20]: 59.4%
viability, T/C [21]: 60.1%
viability, T/C [22]: 61.6%
viability, T/C [23]: 47.7%
viability, T/C [24]: 70.9%
viability, T/C [25]: 68%
viability, T/C [26]: 59.6%
viability, T/C [27]: 45.2%
viability, T/C [28]: 59.2%
viability, T/C [29]: 43.6%
viability, T/C [30]: 71.1%
viability, T/C [31]: 65%
viability, T/C [32]: 50.7%
viability, T/C [33]: 63.7%
viability, T/C [34]: 43.4%
viability, T/C [35]: 48.3%

CC1(C)CCC(CN2CCN(c3ccc(C(=O)NS(=O)(=O)c4ccc(NCC5CCOCC5)c([N+](=O)[O-])c4)c(Oc4cnc5[nH]ccc5c4)c3)CC2)=C(c2ccc(Cl)cc2)C1 + Cc1ccccc1N=Nc1ccc(NC(=O)c2ccnn2C)c(C)c1
IC50 [1]: > 10 µM
IC50 [2]: > 10 µM
IC50 [3]: > 10 µM
IC50 [4]: > 10 µM
IC50 [5]: > 10 µM
viability, T/C [6]: 96.4%
viability, T/C [7]: 99.5%
viability, T/C [8]: 100%
viability, T/C [9]: 79.4%
viability, T/C [10]: 88.2%
viability, T/C [11]: 94.1%
viability, T/C [12]: 110%
viability, T/C [13]: 78.6%
viability, T/C [14]: 102%
viability, T/C [15]: 99.3%
viability, T/C [16]: 85.4%
viability, T/C [17]: 90%
viability, T/C [18]: 110%
viability, T/C [19]: 88%
viability, T/C [20]: 113%
viability, T/C [21]: 92.9%
viability, T/C [22]: 95.1%
viability, T/C [23]: 128%
viability, T/C [24]: 91.9%
viability, T/C [25]: 105%
viability, T/C [26]: 87.5%
viability, T/C [27]: 76.1%
viability, T/C [28]: 78.3%
viability, T/C [29]: 112%
viability, T/C [30]: 102%
viability, T/C [31]: 99.3%
viability, T/C [32]: 98.4%
viability, T/C [33]: 86%
viability, T/C [34]: 83%
viability, T/C [35]: 93.3%
